How the values were obtained:
OtCE15A [1] = molecular target: T1, OtCE15A (Opitutus terrae, UniProt B1ZMF4); experiment: inhibition of BnzGlcA hydrolysis, coupled continuous assay (K-URONIC kit); assay type: biochemical; details: BnzGlcA as substrate (3.5 mM or 350 μM)
T1 construct: gene Oter_0116; recombinant in E. coli BL21 (DE3), purified as in earlier work; catalytic Ser-267, His-408, Glu-290, Asp-356

OtCE15A [2] = molecular target: T2, OtCE15A (Opitutus terrae, UniProt B1ZMF4, L269Y); experiment: continuous coupled esterase assay (K-URONIC kit); assay type: biochemical; details: substrate inhibition constant
T2 construct: gene Oter_0116; recombinant in E. coli BL21 (DE3), purified as in earlier work; catalytic Ser-267, His-408, Glu-290, Asp-356
T2 sequence (B1ZMF4 entry or part of it L269Y): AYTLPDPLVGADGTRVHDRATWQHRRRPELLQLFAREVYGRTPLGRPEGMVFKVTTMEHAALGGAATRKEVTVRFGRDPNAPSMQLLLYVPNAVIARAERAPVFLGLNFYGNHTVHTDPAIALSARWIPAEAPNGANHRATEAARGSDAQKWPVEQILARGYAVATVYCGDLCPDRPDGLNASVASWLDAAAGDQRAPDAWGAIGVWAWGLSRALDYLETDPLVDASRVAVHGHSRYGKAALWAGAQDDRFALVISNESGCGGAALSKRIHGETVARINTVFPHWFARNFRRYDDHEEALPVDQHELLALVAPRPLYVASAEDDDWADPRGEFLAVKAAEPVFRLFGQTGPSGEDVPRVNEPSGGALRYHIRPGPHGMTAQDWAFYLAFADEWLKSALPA
Text: (§1) continuous coupled esterase assay (K-URONIC kit) on OtCE15A

OtCE15A [3] = molecular target: T1, OtCE15A; experiment: inhibition of BnzGlcA hydrolysis, coupled continuous assay (K-URONIC kit); assay type: biochemical; details: competitive; BnzGlcA as substrate
OtCE15A [4] = molecular target: T1, OtCE15A; experiment: X-ray crystal structure; assay type: binding
OtCE15A [5] = molecular target: T1, OtCE15A; experiment: inhibition of BnzGlcA hydrolysis, coupled continuous assay (K-URONIC kit); assay type: biochemical; details: BnzGlcA as substrate (3.5 mM or 350 μM); remark: listed apart in the source
OtCE15A [6] = molecular target: T1, OtCE15A; experiment: continuous coupled esterase assay (K-URONIC kit); assay type: biochemical
Text: as §1

T1 sequence (B1ZMF4 entry or part of it): as the sequence (B1ZMF4 entry or part of it L269Y) above, with Y237L counted along it

Structure (SMILES): OC[C@H]1OC(O)[C@H](O)[C@@H](O)[C@@H]1O (some centres unmarked) [glucose]
- % inhibition at up to 250 mM (OtCE15A [1]): < 10%

Structure (SMILES): COC(=O)[C@H]1OC(O)[C@H](O)[C@@H](O)[C@@H]1O (some centres unmarked) [MeGlcA, methyl glucuronoate]
- Ksi (OtCE15A [2]): 34.5 ± 11.9 mM

Structure (SMILES): OC1OC[C@@H](O)[C@H](O)[C@H]1O (some centres unmarked) [xylose]
- Ki (OtCE15A [3]): 48.1 mM

Structure (SMILES): CO[C@H]1[C@H](O)[C@@H](O)[C@@H](O[C@H]2[C@H](O[C@@H]3COC(O)[C@H](O)[C@H]3O)OC[C@@H](O[C@@H]3OC[C@@H](O)[C@H](O)[C@H]3O)[C@@H]2O)O[C@@H]1C(=O)O (stereo partly drawn) [XUX, 2^3-(4-O-methyl-α-D-glucuronyl)-xylotriose]
- X-ray crystal structure (OtCE15A [4]; active site, no variant named, taken as wild type): OtCE15A in complex with the glucuronoxylan oligosaccharide XUX (PDB code 6T0I)

Structure (SMILES): OC1OC[C@@H](O[C@@H]2OC[C@@H](O)[C@H](O)[C@H]2O)[C@H](O)[C@H]1O (some centres unmarked) [xylobiose]
- X-ray crystal structure (OtCE15A [4]; active site and second site about 25 Å away, no variant named, taken as wild type): showing the two xylobiose-binding sites (PDB code 6SYU)
- % reduction of activity at 100 mM (OtCE15A [5]): ~ 50%

Structure (SMILES): O=C(O)[C@H]1OC(O)[C@H](O)[C@@H](O)[C@@H]1O (some centres unmarked) [GlcA, glucuronate]
- X-ray crystal structure (OtCE15A [4]; active site): We determined the structure of the WT OtCE15A in complex with the product GlcA

Structure (SMILES): COC(=O)[C@H]1OC(O)[C@H](O)[C@@H](O)[C@H]1O (some centres unmarked) [MeGalA, methyl galacturonoate]
- Km (OtCE15A [6]): 5.31 ± 0.51 mM

Source: paper PMC6937553, “Structural and biochemical studies of the glucuronoyl esterase OtCE15A illuminate its interaction with lignocellulosic components” (The Journal of Biological Chemistry, 2019)
